Data as given in patent US20260250325A1, “Antiviral Polypeptide Membrane Fusion Inhibitor, and Preparation Method and Application Thereof” (priority 2025, published 2026).
Like-named read-outs stand apart in the source and are kept apart here. Where a SMILES comes first, the peptide text is derived from it. The star is where a group is joined. X1 = CC(C)CCCC(C)C1CCC2C3CC=C4CC(OC(=O)CCC(=O)*)CCC4(C)C3CCC12C

Tests used:
[1] = Cytotoxicity test in HEp-2 cells (CCK8 cell viability); assay type: cell-based; conditions: human
How it was run: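 HEp-2 cells seeded at 30,000/well, cultured overnight at 37° C./5% CO2, then exposed to diluted compound for 1 day in 0.5% DMSO. Viability read by CCK8, normalised to untreated-cell and medium-only controls; CC50 from four-parameter variable-slope fit.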

RSV A long virus strain = assay type: cell-based
How it was run: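 HEp-2 cells (30000/well) infected with 100 PFU virus premixed 1 h with compound (8 concentrations, duplicate); after 2 h adsorption, cultured 1 day at 37 °C under 0.8% CMC overlay with compound. Plaques immunostained (RSV antibody, TrueBlue) and counted; IC50 and CC50 by non-linear fitting of % inhibition versus virus and cell controls.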

[2] = HEp-2 cells, CCK8, 1 day, read-out: CC50
[3] = RSV A long virus strain, HEp-2 cells, plaque reduction, 1 day, read-out: IC50

Molecule | CC50 at 1 day [1, 2] [µM] | IC50 (RSV A long virus strain; [3]) [µM] | CC50 at 1 day [1] [µM] | IC50 (RSV A long virus strain) [µM]
CC[C@H](C)[C@H](NC(=O)[C@H](Cc1ccccc1)NC(=O)[C@H](CCCCN)NC(=O)[C@H](CC(C)C)NC(=O)[C@H](CO)NC(=O)[C@H](CCC(N)=O)NC(=O)[C@H](CCC(=O)O)NC(=O)[C@@H](NC(=O)[C@H](CCCCN)NC(=O)[C@H](CCCCN)NC(=O)[C@H](CC(N)=O)NC(=O)[C@@H](NC(=O)[C@H](CCC(N)=O)NC(=O)[C@H](CCC(=O)O)NC(=O)[C@H](CC(C)C)NC(=O)[C@H](CO)NC(C)=O)C(C)C)[C@@H](C)CC)C(=O)N[C@@H](CCC(=O)O)C(=O)N[C@@H](CCCCN)C(=O)N[C@@H](CO)C(=O)N[C@@H](CC(=O)O)C(=O)N[C@@H](CCCCN)C(=O)N[C@@H](CC(C)C)C(=O)N[C@@H](CC(C)C)C(=O)N[C@@H](CCC(=O)O)C(=O)N[C@@H](CC(N)=O)C(=O)NCC(=O)N[C@@H](CO)C(=O)NCC(=O)N[C@@H](CO)C(=O)NCC(=O)N[C@@H](CCCCNC(=O)CCC(=O)OC1CCC2(C)C(=CCC3C2CCC2(C)C(C(C)CCCC(C)C)CCC32)C1)C(N)=O (some centres unmarked) [Positive polypeptide 1, reference compound] (Ac-SLEQVNKKIEQSLKFIEKSDKLLENGSGSGK(X1)-NH2) | 3.69 | 0.15 | – | –
CC[C@H](C)[C@H](NC(C)=O)C(=O)N[C@@H](CCC(=O)O)C(=O)N[C@@H](CCC(N)=O)C(=O)N[C@H](C(=O)N[C@@H](CC(N)=O)C(=O)N[C@@H](CCCCN)C(=O)N[C@@H](CCCCN)C(=O)N[C@H](C(=O)N[C@@H](CCC(=O)O)C(=O)N[C@@H](CCC(N)=O)C(=O)N[C@@H](CO)C(=O)N[C@@H](CC(C)C)C(=O)N[C@@H](CCCCN)C(=O)N[C@@H](Cc1ccccc1)C(=O)N[C@H](C(=O)N[C@@H](CCC(=O)O)C(=O)N[C@@H](CCCCN)C(=O)N[C@@H](CO)C(=O)N[C@@H](CC(=O)O)C(=O)N[C@@H](CCCCN)C(=O)N[C@@H](CC(C)C)C(=O)N[C@@H](CC(C)C)C(=O)N[C@@H](CCC(=O)O)C(=O)N[C@@H](CC(N)=O)C(=O)N[C@H](C(=O)N[C@@H](CC(N)=O)C(=O)N[C@@H](CCCCN)C(=O)NCC(=O)N[C@@H](CCCCN)C(N)=O)C(C)C)[C@@H](C)CC)[C@@H](C)CC)C(C)C [Positive polypeptide 2, reference compound] (Ac-IEQVNKKIEQSLKFIEKSDKLLENVNKGK-NH2) | > 10 | > 0.3 | – | –
CC[C@H](C)[C@H](NC(C)=O)C(=O)N[C@@H](CCC(=O)O)C(=O)N[C@@H](CCC(=O)O)C(=O)N[C@H](C(=O)N[C@@H](CC(N)=O)C(=O)N[C@@H](CCCCN)C(=O)N[C@@H](CCCCN)C(=O)N[C@H](C(=O)N[C@@H](CCC(=O)O)C(=O)N[C@@H](CCC(=O)O)C(=O)N[C@@H](CO)C(=O)N[C@@H](CC(C)C)C(=O)N[C@@H](CCCCN)C(=O)N[C@@H](CCCCN)C(=O)N[C@H](C(=O)N[C@@H](CCC(=O)O)C(=O)N[C@@H](CCC(=O)O)C(=O)N[C@@H](CO)C(=O)N[C@@H](CC(=O)O)C(=O)N[C@@H](CCCCN)C(=O)N[C@@H](CCCCN)C(=O)N[C@@H](CC(C)C)C(=O)N[C@@H](CCC(=O)O)C(=O)N[C@@H](CCC(=O)O)C(=O)N[C@H](C(=O)N[C@@H](CC(N)=O)C(=O)N[C@@H](CCCCN)C(=O)N[C@@H](CCCCN)C(=O)N[C@@H](CCCCN)C(=O)N[C@@H](CCC(=O)O)C(=O)N[C@@H](C)C(=O)N[C@@H](C)C(=O)N[C@@H](C)C(=O)N[C@@H](CCCCN)C(=O)N[C@@H](CCCCNC(=O)CCC(=O)OC1CCC2(C)C(=CCC3C2CCC2(C)C(C(C)CCCC(C)C)CCC32)C1)C(N)=O)C(C)C)[C@@H](C)CC)[C@@H](C)CC)C(C)C (some centres unmarked) [Positive polypeptide 3, reference compound] (Ac-IEEVNKKIEESLKKIEESDKKLEEVNKKKEAAAKK(X1)-NH2) | > 10 | > 0.3 | – | –
CC[C@H](C)[C@H](NC(C)=O)C(=O)N[C@@H](CCC(=O)O)C(=O)N[C@@H](CCC(N)=O)C(=O)N[C@H](C(=O)N[C@@H](CC(N)=O)C(=O)N[C@@H](CCCCN)C(=O)N[C@@H](CCCCN)C(=O)N[C@H](C(=O)N[C@@H](CCC(=O)O)C(=O)N[C@@H](CCC(N)=O)C(=O)N[C@@H](CO)C(=O)N[C@@H](CC(C)C)C(=O)N[C@@H](CCCCN)C(=O)N[C@@H](Cc1ccccc1)C(=O)N[C@H](C(=O)N[C@@H](CCC(=O)O)C(=O)N[C@@H](CCCCN)C(=O)N[C@@H](CO)C(=O)N[C@@H](CC(=O)O)C(=O)N[C@@H](CCCCN)C(=O)N[C@@H](CC(C)C)C(=O)N[C@@H](CC(C)C)C(=O)N[C@@H](CCC(=O)O)C(=O)N[C@@H](CC(N)=O)C(=O)N[C@H](C(=O)N[C@@H](CC(N)=O)C(=O)N[C@@H](CCCCN)C(=O)NCC(=O)N[C@@H](CCCCN)C(=O)N[C@@H](CS)C(=O)N[C@@H](CCC(=O)O)C(=O)N[C@@H](C)C(=O)N[C@@H](C)C(=O)N[C@@H](C)C(=O)N[C@@H](CCCCN)C(=O)N[C@@H](CCCCNC(=O)CCC(=O)OC1CCC2(C)C(=CCC3C2CCC2(C)C(C(C)CCCC(C)C)CCC32)C1)C(N)=O)C(C)C)[C@@H](C)CC)[C@@H](C)CC)C(C)C (some centres unmarked) [Positive polypeptide 4, reference compound] (Ac-IEQVNKKIEQSLKFIEKSDKLLENVNKGKCEAAAKK(X1)-NH2) | 4.62 | 0.19 | – | –
CC[C@H](C)[C@H](NC(=O)[C@H](Cc1ccccc1)NC(=O)[C@H](CCCCN)NC(=O)[C@H](CC(C)C)NC(=O)[C@H](CO)NC(=O)[C@H](CCC(N)=O)NC(=O)[C@H](CCC(=O)O)NC(=O)[C@@H](NC(=O)[C@H](CCCCN)NC(=O)[C@H](CCCCN)NC(=O)[C@H](CC(N)=O)NC(=O)[C@@H](NC(=O)[C@H](CCC(N)=O)NC(=O)[C@H](CCC(=O)O)NC(=O)[C@H](CC(C)C)NC(C)=O)C(C)C)[C@@H](C)CC)C(=O)N[C@@H](CCC(=O)O)C(=O)N[C@@H](CCCCN)C(=O)N[C@@H](CO)C(=O)N[C@@H](CC(=O)O)C(=O)N[C@@H](CCCCN)C(=O)N[C@@H](CC(C)C)C(=O)N[C@@H](CC(C)C)C(=O)N[C@@H](CCC(=O)O)C(=O)N[C@@H](CC(N)=O)C(=O)N[C@H](C(=O)N[C@@H](CC(N)=O)C(=O)N[C@@H](CCCCN)C(=O)NCC(=O)N[C@@H](CCCCN)C(=O)N[C@@H](CS)C(=O)N[C@@H](CCC(=O)O)C(=O)N[C@@H](C)C(=O)N[C@@H](C)C(=O)N[C@@H](C)C(=O)N[C@@H](CCCCN)C(=O)N[C@@H](CCCCNC(=O)CCC(=O)OC1CCC2(C)C(=CCC3C2CCC2(C)C(C(C)CCCC(C)C)CCC32)C1)C(N)=O)C(C)C (some centres unmarked) [Positive polypeptide 5, reference compound] (Ac-LEQVNKKIEQSLKFIEKSDKLLENVNKGKCEAAAKK(X1)-NH2) | 3.72 | > 0.3 | – | –
CC[C@H](C)[C@H](NC(=O)[C@H](C)NC(=O)[C@H](C)NC(=O)[C@H](CC(C)C)NC(=O)[C@H](CO)NC(=O)[C@H](CCC(N)=O)NC(=O)[C@H](CC(N)=O)NC(=O)[C@@H](NC(=O)[C@H](CCCCN)NC(=O)[C@H](CCC(=O)O)NC(=O)[C@H](CC(N)=O)NC(=O)[C@@H](NC(=O)[C@H](CCC(N)=O)NC(=O)[C@H](CO)NC(=O)[C@@H](NC(=O)[C@H](CO)NC(=O)[C@H](C)NC(=O)[C@H](CC(=O)O)NC(=O)[C@H](Cc1ccccc1)NC(=O)[C@H](CCC(=O)O)NC(=O)[C@H](CC(=O)O)NC(=O)[C@H](CO)NC(=O)[C@@H]1CCCN1C(=O)[C@H](Cc1ccccc1)NC(=O)[C@@H](NC(C)=O)C(C)C)[C@@H](C)CC)C(C)C)[C@@H](C)CC)C(=O)N[C@@H](CCCNC(=N)N)C(=O)N[C@@H](CCCCN)C(=O)N[C@@H](CO)C(=O)N[C@@H](CC(=O)O)C(=O)N[C@@H](CCC(=O)O)C(=O)N[C@@H](CC(C)C)C(=O)N[C@@H](CC(C)C)C(=O)N[C@@H](Cc1c[nH]cn1)C(=O)N[C@@H](CC(N)=O)C(=O)N[C@H](C(N)=O)C(C)C [Positive polypeptide 6, reference compound] (Ac-VFPSDEFDASISQVNEKINQSLAAIRKSDELLHNV-NH2) | > 10 | > 0.3 | – | –
Ac-FDASISQVNEKINQSLAFIRKSDELLHNVNAGKSTTEAAAKK(X1)-NH2 [Positive polypeptide 7, reference compound] | > 10 | > 0.3 | – | –
Ac-FDFDEFDASISQVNEKINESLAFIRLAFIRKSDELLEAAAKK-NH2 [Compound 24] | > 8 | 2.65 | – | –
Ac-SLEQVNKINEKINKISQSLKKIEESDKKSDEVNAGLEAAAKK-NH2 [Compound 48] | – | – | > 8 | > 8
Ac-SLEQVNKINKKIDKIEESLKKIEESDKKSLEVNKKLEAAAKK-NH2 [Compound 47] | – | – | > 8 | > 8
Ac-SLEQVNKKIEQSLESLKKSDKINQSLEEVNKSDELLEAAAKK-NH2 [Compound 49] | – | – | > 8 | > 8
Ac-WDEFDKKIEEVNKKIEESLKKIEESDKKLEEVNKKLEAAAKK(X1)-NH2 [Compound 9] | > 8 | 0.0957 | – | –
Ac-WDEFDKKIEEVNKKIEESLKKIEESDKKLEEVNKKLGSGSGK(X1)-NH2 [Compound 11] | > 8 | 0.0991 | – | –
